According to patent publication US20090209536A1, “AMINOQUINAZOLINE CANNABINOID RECEPTOR MODULATORS FOR TREATMENT OF DISEASE” (KALYPSYS, INC., priority 2007, published 2009):
Where two headings read alike, the source gives them in different places.

How the values were obtained:
[1] = biological target: T1, human cannabinoid receptor type 2 (Homo sapiens, UniProt P34972); test: Human CB2 Radioligand Binding Assay; settings: membranes from stably transfected CHO CB2 cells
T1 construct: expressed in transfected cells; membrane preparation
T1 sequence (P34972 whole entry): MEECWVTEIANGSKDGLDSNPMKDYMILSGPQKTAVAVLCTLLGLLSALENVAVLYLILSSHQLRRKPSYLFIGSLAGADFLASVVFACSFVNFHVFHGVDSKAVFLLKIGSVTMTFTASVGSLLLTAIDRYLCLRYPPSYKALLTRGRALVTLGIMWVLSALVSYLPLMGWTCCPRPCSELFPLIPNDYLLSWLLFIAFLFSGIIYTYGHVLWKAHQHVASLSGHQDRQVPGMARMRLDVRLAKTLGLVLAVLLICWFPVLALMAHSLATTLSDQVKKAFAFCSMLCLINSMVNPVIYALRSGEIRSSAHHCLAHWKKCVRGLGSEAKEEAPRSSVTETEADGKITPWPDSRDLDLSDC
Outline: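 Test compounds (10 uM final, or dose-response) competed with [3H]CP-55,940, used at the Kd determined per membrane lot, for binding to stable human CB2-CHO membranes over 90 min at 30° C in pH 7.4 Tris/EGTA/MgCl2/BSA buffer. GF/C filtration then scintillation counting; 100 nM CP-55,940 defined 100% efficacy.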

[2] = biological target: T2, human cannabinoid receptor type 1 (Homo sapiens, UniProt P21554); test: Human CB1 Radioligand Binding Assay (basis of selectivity, CB2 vs. CB1); settings: CB1: HEK 293 EBNA cells expressing human CB1; CB2: CHO CB2 membranes
T2 construct: purchased Perkin Elmer RBHCB1M; host or cells: HEK 293 EBNA cells
T2 sequence (P21554 whole entry): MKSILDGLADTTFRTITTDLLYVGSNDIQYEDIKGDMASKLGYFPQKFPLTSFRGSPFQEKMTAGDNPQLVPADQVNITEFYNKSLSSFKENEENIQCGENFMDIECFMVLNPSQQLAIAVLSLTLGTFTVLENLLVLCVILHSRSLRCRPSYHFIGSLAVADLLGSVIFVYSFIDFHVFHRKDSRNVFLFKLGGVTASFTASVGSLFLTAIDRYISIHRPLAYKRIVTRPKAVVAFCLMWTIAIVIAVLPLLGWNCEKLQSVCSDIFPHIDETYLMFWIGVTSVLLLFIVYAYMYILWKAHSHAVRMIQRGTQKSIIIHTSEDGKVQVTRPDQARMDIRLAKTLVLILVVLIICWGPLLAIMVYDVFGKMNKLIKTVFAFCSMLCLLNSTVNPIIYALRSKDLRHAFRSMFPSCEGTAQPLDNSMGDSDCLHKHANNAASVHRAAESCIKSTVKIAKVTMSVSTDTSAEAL
Procedure: 2. Human CB1 Radioligand Binding Assay
The incubation buffer was composed of 50 mM Tris-HCl pH 7.4, 2.5 mM EDTA, 5 mM MgCl2, 5.0 mg/ml fatty acid free BSA and the wash buffer was composed of 50 mM Tris-HCl pH 7.4, 2.5 mM EDTA, 5 mM MgCl2, 0.5 mg/ml fatty acid free BSA.

[3] = competition with [3H] CP-55,940, read-out: CB2 Ligand Binding Asssay EC50

Row | SMILES | EC50 [1, 3] | Selectivity, CB2 vs. CB1 [2] | EC50 ([1]; CB2 Ligand Binding Asssay EC50, competition with [3H] CP-55,940)
1 | CN1CCN(c2nc(-c3ccc(F)c(F)c3)nc3ccccc23)CC1 [Example 18, 2-(3,4-Difluorophenyl)-4-(4-methylpiperazin-1-yl)quinazoline] | < 1 µM | + (+ indicates > 10−fold) | 
2 | CCOC(=O)N1CCN(c2nc(Cc3ccccc3C)nc3ccccc23)CC1 [Example 340, Ethyl 4-(2-(2-methylbenzyl)quinazolin-4-yl)piperazine-1-carboxylate] | > 1 µM | + (+ indicates > 10−fold) | 
3 | CN1CCN(c2nc(CNS(=O)(=O)c3ccc4ccccc4c3)nc3ccccc23)CC1 [Example 6, N-((4-(4-methylpiperazin-1-yl)quinazolin-2-yl)methyl)naphthalene-2-sulfonamide] | > 1 µM | + (+ indicates > 10−fold) | 
4 | CC(=O)N1CCN(c2nc(-c3ccccc3F)nc3cccc(Cl)c23)CC1 [Example 237, 1-(4-(5-Chloro-2-(2-fluorophenyl)quinazolin-4-yl)piperazin-1-yl)ethanone] | < 1 µM | + (+ indicates > 10−fold) | 
5 | Fc1ccc(-c2nc(N3CCOCC3)c3ccccc3n2)c(F)c1 [Example 25, 4-(2-(2,4-Difluorophenyl)quinazolin-4-yl)morpholine] | > 1 µM | − (− indicates ≦ 10−fold) | 
6 | Clc1ccc2nc(-c3ccccc3Cl)nc(N3CCCC3)c2c1 [Example 205, 6-Chloro-2-(2-chlorophenyl)-4-(pyrrolidin-1-yl)quinazoline] | < 1 µM | + (+ indicates > 10−fold) | 
7 | FC(F)(F)Oc1ccc2nc(-c3ccccc3Cl)nc(N3CCCC3)c2c1 [Example 182, 2-(2-Chlorophenyl)-4-(pyrrolidin-1-yl)-6-(trifluoromethoxy) quinazoline] |  | − (− indicates ≦ 10−fold) | > 1 µM
8 | CN1CCN(c2nc(-c3ccccc3Cl)nc3ccc(C(C)(C)C)cc23)CC1 [Example 168, 6-tert-Butyl-2-(2-chlorophenyl)-4-(4-methylpiperazin-1-yl)quinazoline] | < 1 µM | + (+ indicates > 10−fold) | 
9 | Clc1ccccc1-c1nc(N2CCSCC2)c2ccccc2n1 [Example 68, 2-(2-Chlorophenyl)-4-thiomorpholin-4-ylquinazoline] | < 1 µM | − (− indicates ≦ 10−fold) | 
10 | CN(c1ccc(F)cc1F)c1nc(-c2ccc(C(C)(C)C)cc2)nc2ccccc12 [Example 116, 2-(4-tert-Butylphenyl)-N-(2,4-difluorophenyl)-N-methylquinazolin-4-amine] | > 1 µM | − (− indicates ≦ 10−fold) | 
11 | CCCNC(=O)N1CCN(c2nc(-c3ccccc3Cl)nc3cccc(Cl)c23)CC1 [Example 284, 4-(5-Chloro-2-(2-chlorophenyl)quinazolin-4-yl)-N-propylpiperazine-1-carboxamide] | > 1 µM | − (− indicates ≦ 10−fold) | 
12 | Fc1ccc(-c2nc(N3CCCCC3)c3ccccc3n2)cc1F [Example 15, 2-(3,4-difluorophenyl)-4-(piperidin-1-yl)quinazoline] | < 1 µM | − (− indicates ≦ 10−fold) | 
13 | CCOC(=O)N1CCN(c2nc(-c3ccccc3Cl)nc3cccc(C)c23)CC1 [Example 255, Ethyl 4-(2-(2-chlorophenyl)-5-methylquinazolin-4-yl)piperazine-1-carboxylate] | < 1 µM | + (+ indicates > 10−fold) | 
14 | CC(C)(C)c1ccc2c(N3CCCC3)nc(Nc3ccc(F)c(F)c3)nc2c1 [Example 289, 7-tert-Butyl-N-(3,4-difluorophenyl)-4-(pyrrolidin-1-yl)quinazolin-2-amine] | < 1 µM | − (− indicates ≦ 10−fold) | 
15 | CC(=O)N1CCN(c2nc(-c3ccc(F)cc3F)nc3ccccc23)CC1 [Example 24, 1-(4-(2-(2,4-Difluorophenyl)quinazolin-4-yl)piperazin-1-yl)ethanone] | < 1 µM | − (− indicates ≦ 10−fold) | 

Second part, led by results:

Row | EC50 [1, 3] | Selectivity, CB2 vs. CB1 [2] | SMILES | EC50 ([1]; CB2 Ligand Binding Asssay EC50, competition with [3H] CP-55,940)
16 | < 1 µM | + (+ indicates > 10−fold) | CN1CCN(c2nc(-c3ccc(C(F)(F)F)cc3)nc3ccccc23)CC1 [Example 42, 4-(4-Methylpiperazin-1-yl)-2-(4-(trifluoromethyl)phenyl)quinazoline] | 
17 | < 1 µM | + (+ indicates > 10−fold) | CC(C)(C)c1ccc2nc(-c3ccccc3Cl)nc(N3CCCC3)c2c1 [Example 171, 6-tert-Butyl-2-(2-chlorophenyl)-4-(pyrrolidin-1-yl)quinazoline] | 
18 | < 1 µM | + (+ indicates > 10−fold) | Clc1nccc(N2CCN(c3nc(-c4ccccc4Cl)nc4ccccc34)CC2)n1 [Example 197, 2-(2-Chlorophenyl)-4-(4-(2-chloropyrimidin-4-yl)piperazin-1-yl)quinazoline] | 
19 | > 1 µM | − (− indicates ≦ 10−fold) | O=S(=O)(NCc1nc(Nc2ccccc2)c2ccccc2n1)c1cccc2ccccc12 [Example 302, N-((4-(Phenylamino)quinazolin-2-yl)methyl)naphthalene-1-sulfonamide] | 
20 | > 1 µM | − (− indicates ≦ 10−fold) | COc1ccc(Oc2nc(N3CCCC3)c3cc(OC)c(OC)cc3n2)cc1 [Example 297, 6,7-Dimethoxy-2-(4-methoxyphenoxy)-4-(pyrrolidin-1-yl)quinazoline] | 
21 | > 1 µM | − (− indicates ≦ 10−fold) | Clc1ccccc1-c1nc(NCC23CC4CC(CC(C4)C2)C3)c2ccccc2n1 [Example 190, 2-(2-Chlorophenyl)-N-(1-adamanthylmethyl)quinazolin-4-amine] | 
22 | > 1 µM | − (− indicates ≦ 10−fold) | c1ccc2c(N3CCCCC3)nc(C3CCCC3)nc2c1 [Example 136, 2-Cyclopentyl-4-piperidin-1-ylquinazoline] | 
23 | < 1 µM | − (− indicates ≦ 10−fold) | Clc1ccccc1-c1nc(N2CCCC2)c2cc(Br)ccc2n1 [Example 184, 6-Bromo-2-(2-chlorophenyl)-4-(pyrrolidin-1-yl)quinazoline] | 
24 | > 1 µM | − (− indicates ≦ 10−fold) | CCN1CCN(c2nc(-c3ccccc3Cl)nc3ccccc23)C(=O)C1 [Example 73, 1-(2-(2-Chlorophenyl)quinazolin-4-yl)-4-ethylpiperazin-2-one] | 
25 | > 1 µM | − (− indicates ≦ 10−fold) | CN(c1ccc(C(C)(C)C)cc1)c1nc(-c2ccccc2Cl)nc2ccccc12 [Example 81, (4-tert-Butylphenyl)-[2-(2-chlorophenyl)quinazolin-4-yl]methylamine] | 
26 | < 1 µM | − (− indicates ≦ 10−fold) | CCN1[C@H](C)CN(c2nc(-c3ccccc3Cl)nc3ccccc23)C[C@@H]1C [Example 80, 2-(2-Chlorophenyl)-4-((3S,5R)-4-ethyl-3,5-dimethylpiperazin-1-yl)quinazoline] | 
27 | < 1 µM | − (− indicates ≦ 10−fold) | O=S(=O)(NCc1nc(N2Cc3ccccc3C2)c2ccccc2n1)c1cccc2ccccc12 [Example 308, N-((4-(isoindolin-2-yl)quinazolin-2-yl)methyl)naphthalene-1-sulfonamide] | 
28 | < 1 µM | + (+ indicates > 10−fold) | CC(C)(C)c1ccc(-c2nc(N3CCCC3)c3ccccc3n2)cc1 [Example 110, 2-(4-tert-Butylphenyl)-4-(pyrrolidin-1-yl)quinazoline] | 
29 | > 1 µM | − (− indicates ≦ 10−fold) | CN(c1ccc(C(C)(C)C)cc1)c1nc(-c2ccc(OC(F)(F)F)cc2)nc2ccccc12 [Example 144, (4-tert-Butylphenyl)methyl-[2-(4-trifluoromethoxyphenyl)quinazolin-4-yl]amine] | 
30 | < 1 µM | + (+ indicates > 10−fold) | CCOC(=O)N1CCN(c2nc(-c3ccccc3F)nc3cccc(F)c23)CC1 [Example 281, Ethyl 4-(5-fluoro-2-(2-fluorophenyl)quinazolin-4-yl)piperazine-1-carboxylate] | 
31 | < 1 µM | − (− indicates ≦ 10−fold) | Cc1ccccc1Cc1nc(N2CCN(C)CC2)c2ccccc2n1 [Example 337, 2-(2-Methylbenzyl)-4-(4-methylpiperazin-1-yl)quinazoline] | 
32 | < 1 µM | + (+ indicates > 10−fold) | Fc1ccccc1-c1nc(N2CCCC2)c2c(Cl)cccc2n1 [Example 239, 5-Chloro-2-(2-fluorophenyl)-4-(pyrrolidin-1-yl)quinazoline] | 
33 | > 1 µM | − (− indicates ≦ 10−fold) | CN(Cc1ccccc1)c1nc(-c2ccc(F)c(F)c2)nc2ccccc12 [Example 17, N-benzyl-2-(3,4-difluorophenyl)-N-methylquinazolin-4-amine] | 
34 | < 1 µM | − (− indicates ≦ 10−fold) | COc1ccc2nc(-c3ccccc3Cl)nc(N3CCCCC3)c2c1 [Example 178, 2-(2-Chlorophenyl)-6-methoxy-4-(piperidin-1-yl)quinazoline] | 
35 | > 1 µM | − (− indicates ≦ 10−fold) | FC(F)(F)Oc1ccc2nc(-c3ccc(Cl)cc3)nc(N3CCSCC3)c2c1 [Example 224, 4-(2-(4-Chlorophenyl)-6-(trifluoromethoxy)quinazolin-4-yl)thiomorpholine] | 
